In PubChem BioAssay AID1963972 (Molecular Pharmacology Branch, DTP, NCI, 2024):
pIC50: −log10 of the molar value.

System: 945468-187-T-J2-PDC spheroids viability
Experiment: Anticancer human tumor 945468-187-T-J2-PDC patient-derived rectal carcinoma cell line growth inhibition [PI3K]
Conditions: spheroids with HUVEC and MSC; for pIC50: curve of first compound; for viability, T/C: stronger effect = lower value; active = viability on the fitted dose curve at most 10% of control; inactive = the rest
Outline: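 Combination activity was assessed by viability in multicellular tumor spheroids carrying HUVEC and MSC components. Agents were tested with PI3K inhibitors from a Cmax-based top dose (or 10 microM) downward in half-log increments.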
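Note: spheroids exposed to compounds for seven days before reading.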

CCN1CCN(Cc2ccc(Nc3ncc(F)c(-c4cc(F)c5nc(C)n(C(C)C)c5c4)n3)nc2)CC1 + CC(Nc1ccc2c(c1)OCCn1cc(N3C(=O)OCC3C(F)F)nc1-2)C(N)=O
inactive: viability, T/C (second compound 0.00316 µM, first compound 0.00316 µM) 113% | viability, T/C (second compound 0.00316 µM, first compound 0.01 µM) 93.7% | viability, T/C (second compound 0.00316 µM, first compound 0.0316 µM) 88.2% | viability, T/C (second compound 0.00316 µM, first compound 0.1 µM) 101% | viability, T/C (second compound 0.00316 µM, first compound 0.316 µM) 82.7% | viability, T/C (second compound 0.00316 µM, first compound 1 µM) 73.2% | viability, T/C (second compound 0.01 µM, first compound 0.00316 µM) 95.2% | viability, T/C (second compound 0.01 µM, first compound 0.01 µM) 96.7% | viability, T/C (second compound 0.01 µM, first compound 0.0316 µM) 90.9% | viability, T/C (second compound 0.01 µM, first compound 0.1 µM) 102% | viability, T/C (second compound 0.01 µM, first compound 0.316 µM) 143% | viability, T/C (second compound 0.01 µM, first compound 1 µM) 71.3% | viability, T/C (second compound 0.0316 µM, first compound 0.00316 µM) 99% | viability, T/C (second compound 0.0316 µM, first compound 0.01 µM) 95.1% | viability, T/C (second compound 0.0316 µM, first compound 0.0316 µM) 95.2% | viability, T/C (second compound 0.0316 µM, first compound 0.1 µM) 117% | viability, T/C (second compound 0.0316 µM, first compound 0.316 µM) 111% | viability, T/C (second compound 0.0316 µM, first compound 1 µM) 74.7% | viability, T/C (second compound 0.1 µM, first compound 0.00316 µM) 91.8% | viability, T/C (second compound 0.1 µM, first compound 0.01 µM) 91.3% | viability, T/C (second compound 0.1 µM, first compound 0.0316 µM) 94.3% | viability, T/C (second compound 0.1 µM, first compound 0.1 µM) 79.3% | viability, T/C (second compound 0.1 µM, first compound 0.316 µM) 94.1% | viability, T/C (second compound 0.1 µM, first compound 1 µM) 59.1% | viability, T/C (second compound 0.316 µM, first compound 0.00316 µM) 78.2% | viability, T/C (second compound 0.316 µM, first compound 0.01 µM) 79.8% | viability, T/C (second compound 0.316 µM, first compound 0.0316 µM) 75.6% | viability, T/C (second compound 0.316 µM, first compound 0.1 µM) 71.1% | viability, T/C (second compound 0.316 µM, first compound 0.316 µM) 83.8% | viability, T/C (second compound 0.316 µM, first compound 1 µM) 38.4% | viability, T/C (second compound 1 µM, first compound 0.00316 µM) 79.7% | viability, T/C (second compound 1 µM, first compound 0.01 µM) 67.2% | viability, T/C (second compound 1 µM, first compound 0.0316 µM) 83.4% | viability, T/C (second compound 1 µM, first compound 0.1 µM) 82.4% | viability, T/C (second compound 1 µM, first compound 0.316 µM) 51% | viability, T/C (second compound 1 µM, first compound 1 µM) 28.2%
< 6.00: pIC50 (second compound 0.00316 µM) | pIC50 (second compound 0.01 µM) | pIC50 (second compound 0.0316 µM) | pIC50 (second compound 0.1 µM)
6.15: pIC50 (second compound 0.316 µM)
6.48: pIC50 (second compound 1 µM)
